In patent US9049866B2, “Synergistic herbicidal combination of clomazone and pethoxamid” (CHEMINOVA A/S, priority 2008, dated 2015):

Experiments:
Format in all cases: in vivo
[1] = system: Viola arvensis; assay: Oilseed rape field test, control of Viola arvensis (Example 3); conditions: spraying, clomazone 72, pethoxamid 1200, combination 72 + 1200 g AI/hectare, 206 days after application
Excerpt: (§1) In the Colby method, also referred to as the Limpels method, the action to be expected E for a given active ingredient combination obeys the so-called Colby formula. According to Colby, the expected action of active ingredients A+B using p+q ppm of active ingredient is:
(§2) [formula] where ppm=milligrams of active ingredient (=a.i.) per liter of spray mixture X=% action by component A using p ppm of active ingredient Y=% action by component B using q ppm of active ingredient. If the ratio R defined as the action actually observed (O) divided by the expected action (E) is >1 then the action of the combination is superadditive, i.e. there is a synergistic effect. […]
(§3) The herbicidal compounds A and B were applied in the formulation in which they are present as commercially available product. Damage by the herbicidal compositions was evaluated with reference to a scale of 0% to 100% in comparison with untreated control plots. […]
In an oilseed rape field, Clomazone, and pethoxamid were applied individually and in combination to different plots by spraying. 206 days after application the rate of control of Viola arvensis was recorded. The expected control is calculated according to the Colby method.

[2] = system: Solanum nigrum; assay: Field test in sunflowers, control of Solanum nigrum (Example 1); conditions: sunflower field, spraying, clomazone 90 g/ha, pethoxamid 1200 g/ha, combination 90+1200 g/ha, 55 days after application
Excerpt: as §1, §2, §3
(§4) In a field of sunflowers, clomazone (rate of 90 g/ha) and pethoxamid (rate of 1200 g/ha) were applied individually and in combination (90+1200 g/ha) to different plots by spraying. 55 days after application the rate of control of various weeds was recorded. The expected control is calculated according to the Colby method.

[3] = system: Mercurialis annua; assay: Field test in sunflowers, control of Mercurialis annua (Example 2); conditions: sunflower field, spraying, clomazone 90 g/ha, pethoxamid 1200 g/ha, combination 90+1200 g/ha, 50 days after application
Excerpt: as §1, §2, §3
as §4, with “50” for “55”

[4] = system: Galium aparine; assay: Oilseed rape field test, control of Galium aparine (Example 4); conditions: spraying, clomazone 72, pethoxamid 1200, combination 72 + 1200 g AI/hectare, 64 days after application
Excerpt: as §1, §2, §3
In an oilseed rape field, Clomazone, and pethoxamid were applied individually and in combination to different plots by spraying. 64 days after application the rate of control of Galium aparine was recorded. The expected control is calculated according to the Colby method.

[5] = system: Ambrosia artemisiifolia; assay: Field test in sunflowers, control of Ambrosia artemisiifolia (Example 2); conditions: sunflower field, spraying, clomazone 90 g/ha, pethoxamid 1200 g/ha, combination 90+1200 g/ha, 50 days after application
Excerpt: as §1, §2, §3
as §4, with “50” for “55”

[6] = system: Echinochloa crus-galli; assay: Field test in sunflowers, control of Echinochloa crus-galli (Example 1); conditions: sunflower field, spraying, clomazone 90 g/ha, pethoxamid 1200 g/ha, combination 90+1200 g/ha, 55 days after application, 0 = no damage, 100 = complete destruction
Excerpt: as §1, §2, §3, §4

| Compound | Control observed (O) % [1] [%] | Control observed (O) % [2] [%] | Control observed (O) % [3] [%] | Control observed (O) % [4] [%] | Control observed (O) % [5] [%] | Control observed (O) % [6] [%] |
| --- | --- | --- | --- | --- | --- | --- |
| CC1(C)CON(Cc2ccccc2Cl)C1=O [Clomazone, clomazone] | 0 | 37 | 13 | 40 | 10 | 50 |
| CCOCCN(C(=O)CCl)C(=C(C)C)c1ccccc1 [Pethoxamid, pethoxamid] | 50 | 47 | 27 | 0 | 10 | 47 |
